This note sets out measurements from US6713436B1, “1-cycloalkylpyrazolyl-benzoyl derivatives” (BASF Aktiengesellschaft, priority 1999, dated 2004).

For one series, the system named is Chenopodium album. In words: greenhouse post-emergence herbicidal test. It is filed as in vivo. As to conditions: Chenopodium album (lamb's-quarters), application rates of 0.5 or 0.25 kg/ha. The text has this:
(§1) The seeds of the test plants were sown separately for each species. For the post-emergence treatment, the test plants were first grown to a height of 3 to 15 cm, depending on the plant habit, and only then treated with the active compounds which had been suspended or emulsified in water. The test plants were for this purpose either sown directly and grown in the same containers, or they were first grown separately as seedlings and transplanted into the test containers a few days prior to treatment. The application rate for the post-emergence treatment was 0.5 or 0.25 kg of a.s. (active substance)/ha. Depending on the species, the plants were kept at 10-25° C. or 20-35° C. The test period extended over 2 to 4 weeks. During this time, the plants were tended, and their response to the individual treatments was evaluated. The evaluation was carried out using a scale from 0 to 100. 100 means no emergence of the plants, or complete destruction of at least the aerial parts and 0 means no damage, or normal course of growth. The plants used in the greenhouse experiments were of the following species: [table]

For the next series, the system named is Polygonum persicaria. In words: greenhouse post-emergence herbicidal test. The series is classed as in vivo. The conditions noted are these: Polygonum persicaria (lady's-thumb), application rates of 0.5 or 0.25 kg/ha.
Description: as §1

The test system of the next series is Echinochloa crus-galli. In words: greenhouse post-emergence herbicidal test. The conditions noted are these: Echinochloa crus-galli (barnyard grass), application rates of 0.5 or 0.25 kg/ha. It is filed as in vivo.
Description: as §1

The next series has as its system Brachiaria plantaginea. In words: greenhouse post-emergence herbicidal test. It is filed as in vivo. As to conditions: Brachiaria plantaginea (alexander grass), application rates of 0.5 or 0.25 kg/ha.
Description: as §1

As for `Cc1c(C(=O)c2cnn(C3CCCC3)c2O)ccc(S(C)(=O)=O)c1C1=NOCC1` [compound 4.6, 4-[2-Methyl-3-(4,5-dihydroisoxazol-3-yl)-4-methylsulfonylbenzoyl]-1-cyclopentyl-5-hydroxy-1H-pyrazole], the melting point (as a rule, the temperature, or range, at which the solid turns liquid) fell in the range of 135 to 140 °C. For the same compound, in the series with Chenopodium album, the post-emergence action result is reported as “very good”. Also, the post-emergence action result in the series with Polygonum persicaria was “very good”. For the same compound, the post-emergence action entry in the series with Echinochloa crus-galli is “very good”. The post-emergence action result in the series with Brachiaria plantaginea was “very good”.
